Patent US4438044A, “Di-L-cysteine L-malate and process for the production thereof” (priority 1980, dated 1984)
≈ marks a conversion by molar mass, not a printed value.

Key:
Solubility in water = type: physicochemical; conditions: 10° C.
[1] = type: physicochemical
Procedure: The storage stability of the above crystalline product and L-cysteine hydrochloride anhydride is measured by keeping them at 40° C. The results are shown in the accompanying FIG. 3.

Compound: N[C@@H](CS)C(=O)O [di-L-cysteine L-malate]
- solubility (Solubility in water): 222 mg/mL (≈ 1830 mM)
- stability in the crystalline form [1]: extremely stable
- storage stability [1]: excellent stability
